# Data reported in patent publication US11987586B1 (TAKEDA PHARMACEUTICAL COMPANY LIMITED, priority 2022, dated 2024).
# Molecular target: T1, human OX2 receptor (Homo sapiens, UniProt O43614)
# T1 construct: expressed in transfected cells
# T1 sequence (O43614 1-444): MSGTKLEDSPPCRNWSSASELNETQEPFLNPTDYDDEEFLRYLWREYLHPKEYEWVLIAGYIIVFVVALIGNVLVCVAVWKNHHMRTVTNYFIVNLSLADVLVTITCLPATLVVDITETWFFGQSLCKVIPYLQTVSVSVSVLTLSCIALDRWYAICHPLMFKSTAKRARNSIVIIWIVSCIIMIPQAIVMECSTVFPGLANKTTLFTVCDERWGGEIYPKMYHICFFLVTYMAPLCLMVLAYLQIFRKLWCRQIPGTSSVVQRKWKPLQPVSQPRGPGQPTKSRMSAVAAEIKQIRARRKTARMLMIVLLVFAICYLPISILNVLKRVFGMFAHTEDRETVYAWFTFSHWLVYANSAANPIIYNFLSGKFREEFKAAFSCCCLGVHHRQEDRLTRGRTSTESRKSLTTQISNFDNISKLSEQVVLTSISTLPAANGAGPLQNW
# Assay: Measurement of orexin type 2 receptor agonist activity (calcium fluorescence, Fluo-4, FDSS)
# Assay type: cell-based
# Conditions: 3 uM test compound; CHO cells expressing human OX2 receptor; DMSO = 0%, 10 nM orexin A (human) = 100%
# In short: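 Agonist activity (%) was normalised to the response to 10 nM final human orexin A (100%) and to the DMSO vehicle (0%). The response was measured as the Fluo-4 calcium signal, read kinetically over 1 min 40 s after compound addition to Fluo-4/probenecid-loaded stable CHO-K1 clones expressing human OX2 (aa 1-444).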
row,"OX2R agonist activity (3 uM, %) [%]",SMILES
1,95,"Cc1cc(-c2c(F)cc(F)cc2F)c2c(-n3cc4n(c3=O)C[C@@H](NS(C)(=O)=O)C4(F)F)noc2n1 [Example 174, N-{(6R)-7,7-Difluoro-2-[6-methyl-4-(2,4,6-trifluorophenyl) [1,2]oxazolo [5,4-b]pyridin-3-yl]-3-oxo-2,5,6,7-tetrahydro-3H-pyrrolo[1,2-c]imidazol-6-yl}methanesulfonamide]"
2,106,"CCS(=O)(=O)N[C@@H]1Cn2c(cn(-c3noc4cc(Cl)cc(-c5c(F)cc(F)cc5F)c34)c2=O)C1(F)F [Example 39, N-{(6R)-2-[6-chloro-4-(2,4,6-trifluorophenyl)-1,2-benzoxazol-3-yl]-7,7-difluoro-3-oxo-2,5,6,7-tetrahydro-3H-pyrrolo[1,2-c]imidazol-6-yl}ethanesulfonamide]"
3,109,"CCS(=O)(=O)N[C@@H]1Cn2c(cn(-c3noc4cc(OC(F)F)cc(-c5c(F)cc(F)cc5F)c34)c2=O)C1(F)F [Example 179, N-{(6R)-2-[6-(difluoromethoxy)-4-(2,4,6-trifluorophenyl)-1,2-benzoxazol-3-yl]-7,7-difluoro-3-oxo-2,5,6,7-tetrahydro-3H-pyrrolo[1,2-c]imidazol-6-yl}ethanesulfonamide]"
4,96,"Cc1cc(-c2c(F)cccc2F)c2c(N3CC[C@H]4N(C[C@@H](NS(C)(=O)=O)C4(F)F)C3=O)noc2c1 [Example 209, N-{(4aR,6R)-2-[4-(2,6-difluorophenyl)-6-methyl-1,2-benzoxazol-3-yl]-5,5-difluoro-1-oxooctahydropyrrolo[1,2-c]pyrimidin-6-yl}methanesulfonamide]"
5,89,"COCc1cc2onc(-n3cc4n(c3=O)C[C@@H](NS(C)(=O)=O)C4(F)F)c2c(-c2c(F)cc(F)cc2F)c1F [Example 244, N-{(6R)-7,7-difluoro-2-[5-fluoro-6-(methoxymethyl)-4-(2,4,6-trifluorophenyl)-1,2-benzoxazol-3-yl]-3-oxo-2,5,6,7-tetrahydro-3H-pyrrolo[1,2-c]imidazol-6-yl}methanesulfonamide]"
6,102,"CCOc1cc(-c2c(F)cc(F)cc2F)c2c(N3CC[C@H]4N(C[C@@H](NS(=O)(=O)C5CC5)C4(F)F)C3=O)noc2c1 [Example 249, N-{(4aR,6R)-2-[6-ethoxy-4-(2,4,6-trifluorophenyl)-1,2-benzoxazol-3-yl]-5,5-difluoro-1-oxooctahydropyrrolo[1,2-c]pyrimidin-6-yl}cyclopropanesulfonamide]"
7,112,"CCS(=O)(=O)N[C@@H]1CN2C(=O)N(c3noc4cc(C)nc(-c5c(F)cc(F)cc5F)c34)CC[C@@H]2C1(F)F [Example 220, N-{(4aR,6R)-5,5-difluoro-2-[6-methyl-4-(2,4,6-trifluorophenyl)[1,2]oxazolo[4,5-c]pyridin-3-yl]-1-oxooctahydropyrrolo[1,2-c]pyrimidin-6-yl}ethanesulfonamide]"
8,96,"CS(=O)(=O)N[C@@H]1CN2C(=O)N(c3noc4cc(Cl)cc(-c5c(F)cc(F)cc5F)c34)C[C@@H]2C1(F)F [Example 25, N-{(6R,7aR)-2-[6-chloro-4-(2,4,6-trifluorophenyl)-1,2-benzoxazol-3-yl]-7,7-difluoro-3-oxohexahydro-1H-pyrrolo[1,2-c]imidazol-6-yl}methanesulfonamide]"
9,107,"CCS(=O)(=O)N[C@@H]1CN2C(=O)N(c3noc4cc(COC)cc(-c5c(F)cc(F)cc5F)c34)CC[C@@H]2C1(F)F [Example 232, N-{(4aR,6R)-5,5-difluoro-2-[6-(methoxymethyl)-4-(2,4,6-trifluorophenyl)-1,2-benzoxazol-3-yl]-1-oxooctahydropyrrolo[1,2-c]pyrimidin-6-yl}ethanesulfonamide]"
10,111,"O=C1N(c2noc3ccc(F)c(-c4c(F)cc(F)cc4F)c23)CC[C@H]2N1C[C@@H](NS(=O)(=O)C1CC1)C2(F)F [Example 234, N-{(4aR,6R)-5,5-difluoro-2-[5-fluoro-4-(2,4,6-trifluorophenyl)-1,2-benzoxazol-3-yl]-1-oxooctahydropyrrolo[1,2-c]pyrimidin-6-yl}cyclopropanesulfonamide]"
11,99,"CCS(=O)(=O)N[C@@H]1CN2C(=O)N(c3noc4cc(Cl)c(F)c(-c5c(F)cc(F)cc5F)c34)C[C@@H]2C1(F)F [Example 93, N-{(6R,7aR)-2-[6-chloro-5-fluoro-4-(2,4,6-trifluorophenyl)-1,2-benzoxazol-3-yl]-7,7-difluoro-3-oxohexahydro-1H-pyrrolo[1,2-c]imidazol-6-yl}ethanesulfonamide]"

# More lines, now with the values behind:
row,SMILES,"OX2R agonist activity (3 uM, %) [%]"
1,"O=C1N(c2noc3ccc(F)c(-c4c(F)cccc4F)c23)CC[C@H]2N1C[C@@H](NS(=O)(=O)C1CC1)C2(F)F [Example 280, N-{(4aR,6R)-2-[4-(2,6-difluorophenyl)-5-fluoro-1,2-benzoxazol-3-yl]-5,5-difluoro-1-oxooctahydropyrrolo[1,2-c]pyrimidin-6-yl}cyclopropanesulfonamide]",101
2,"CCS(=O)(=O)N[C@@H]1CN2C(=O)N(c3noc4cccc(-c5c(F)cccc5F)c34)C[C@@H]2[C@@H]1F (relative stereo) [Example 4, rel-N-{(6R,7S,7aR)-2-[4-(2,6-difluorophenyl)-1,2-benzoxazol-3-yl]-7-fluoro-3-oxohexahydro-1H-pyrrolo[1,2-c]imidazol-6-yl}ethanesulfonamide]",105
3,"CCS(=O)(=O)N[C@H]1C[C@H]2CN(c3noc4c(Cl)ccc(-c5c(F)cccc5F)c34)C(=O)N2C1 [Example 58, N-{(6S,7aS)-2-[7-chloro-4-(2,6-difluorophenyl)-1,2-benzoxazol-3-yl]-3-oxohexahydro-1H-pyrrolo[1,2-c]imidazol-6-yl}ethanesulfonamide]",88
4,"CCS(=O)(=O)N[C@H]1C[C@H]2CN(c3nsc4cccc(-c5c(F)cccc5F)c34)C(=O)N2C1 [Example 55, N-{(6S,7aS)-2-[4-(2,6-difluorophenyl)-1,2-benzothiazol-3-yl]-3-oxohexahydro-1H-pyrrolo[1,2-c]imidazol-6-yl}ethanesulfonamide]",108
5,"CS(=O)(=O)N[C@@H]1CN2C(=O)N(c3noc4cccc(-c5ccccc5Cl)c34)CC[C@@H]2C1(F)F [Example 291, N-{(4aR,6R)-2-[4-(2-chlorophenyl)-1,2-benzoxazol-3-yl]-5,5-difluoro-1-oxooctahydropyrrolo[1,2-c]pyrimidin-6-yl}methanesulfonamide]",106
6,"CS(=O)(=O)N[C@H]1C[C@H]2CCN(c3noc4cc(F)cc(-c5c(F)cccc5F)c34)C(=O)N2C1 [Example 253, N-{(4aR,6S)-2-[4-(2,6-difluorophenyl)-6-fluoro-1,2-benzoxazol-3-yl]-1-oxooctahydropyrrolo[1,2-c]pyrimidin-6-yl}methanesulfonamide]",101
7,"CCS(=O)(=O)N[C@H]1Cc2cn(-c3cnn4cccc(-c5c(F)cccc5F)c34)c(=O)n2C1 [Example 2, N-{(6S)-2-[4-(2,6-difluorophenyl)pyrazolo[1,5-a]pyridin-3-yl]-3-oxo-2,5,6,7-tetrahydro-3H-pyrrolo[1,2-c]imidazol-6-yl}ethanesulfonamide]",108
8,"CS(=O)(=O)N[C@@H]1CN2C(=O)N(c3noc4cccc(-c5ccccc5)c34)CC[C@@H]2C1(F)F [Example 223, N-[(4aR,6R)-5,5-difluoro-1-oxo-2-(4-phenyl-1,2-benzoxazol-3-yl)octahydropyrrolo[1,2-c]pyrimidin-6-yl]methanesulfonamide]",104
9,"CS(=O)(=O)N[C@@H]1CN2C(=O)N(c3noc4cc(Br)cc(-c5c(F)cccc5F)c34)CC[C@@H]2C1(F)F [Example 224, N-{(4aR,6R)-2-[6-bromo-4-(2,6-difluorophenyl)-1,2-benzoxazol-3-yl]-5,5-difluoro-1-oxooctahydropyrrolo[1,2-c]pyrimidin-6-yl}methanesulfonamide]",109
10,"O=C1N(c2noc3cccc(-c4c(F)cccc4F)c23)CC[C@H]2N1C[C@@H](NS(=O)(=O)C1CC1)C2(F)F [Example 285, N-{(4aR,6R)-2-[4-(2,6-difluorophenyl)-1,2-benzoxazol-3-yl]-5,5-difluoro-1-oxooctahydropyrrolo[1,2-c]pyrimidin-6-yl}cyclopropanesulfonamide]",105
11,"O=C1N(c2noc3ccc(F)c(-c4c(F)cccc4F)c23)CC[C@H]2N1C[C@@H](NS(=O)(=O)CF)C2(F)F [Example 270, N-{(4aR,6R)-2-[4-(2,6-difluorophenyl)-5-fluoro-1,2-benzoxazol-3-yl]-5,5-difluoro-1-oxooctahydropyrrolo[1,2-c]pyrimidin-6-yl}-1-fluoromethanesulfonamide]",109
12,"CCS(=O)(=O)NC1CN2C(=O)N(c3noc4cccc(-c5c(F)cccc5F)c34)C[C@@H]2C1C (stereo in doubt) [Example 183, N-{(6R*,7S*,7aS)-2-[4-(2,6-difluorophenyl)-1,2-benzoxazol-3-yl]-7-methyl-3-oxohexahydro-1H-pyrrolo[1,2-c]imidazol-6-yl}ethanesulfonamide]",101
